The target of experiment [1] is T1, Protein disulfide isomerase (PDI) (Homo sapiens, UniProt P07237). Description: insulin turbidimetric reductase assay; ANS displacement from PDI and b′x, intrinsic Trp fluorescence, domain mapping. On the set-up: gene P4HB; full-length PDI; also abb′ (residues 1–331), b′xa′ (residues 219–462) and b′x. It is filed as biochemical.
Experiment [2] concerns the target T2, Protein disulfide isomerase (PDI) (Homo sapiens, UniProt P07237, I289A).
T2 construct: gene P4HB; isolated b′x domain; full-length PDI
T2 sequence (P07237 236-367 I289A limits assumed): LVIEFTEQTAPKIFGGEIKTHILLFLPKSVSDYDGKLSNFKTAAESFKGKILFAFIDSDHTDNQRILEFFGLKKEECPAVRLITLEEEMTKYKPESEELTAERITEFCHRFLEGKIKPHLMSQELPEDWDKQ
The experiment is described as follows: ANS fluorescence binding (λex […] nm), displaced by bepristats, absent with I272A.

The target of experiment [3] is T1, Protein disulfide isomerase (PDI). The experiment is described as follows: insulin turbidimetric and di-eosin-GSSG reductase assays. In kind it is biochemical. Further details: gene P4HB; full-length PDI.

pIC50: −log10 of the molar value.

T1 sequence (P07237 18-508): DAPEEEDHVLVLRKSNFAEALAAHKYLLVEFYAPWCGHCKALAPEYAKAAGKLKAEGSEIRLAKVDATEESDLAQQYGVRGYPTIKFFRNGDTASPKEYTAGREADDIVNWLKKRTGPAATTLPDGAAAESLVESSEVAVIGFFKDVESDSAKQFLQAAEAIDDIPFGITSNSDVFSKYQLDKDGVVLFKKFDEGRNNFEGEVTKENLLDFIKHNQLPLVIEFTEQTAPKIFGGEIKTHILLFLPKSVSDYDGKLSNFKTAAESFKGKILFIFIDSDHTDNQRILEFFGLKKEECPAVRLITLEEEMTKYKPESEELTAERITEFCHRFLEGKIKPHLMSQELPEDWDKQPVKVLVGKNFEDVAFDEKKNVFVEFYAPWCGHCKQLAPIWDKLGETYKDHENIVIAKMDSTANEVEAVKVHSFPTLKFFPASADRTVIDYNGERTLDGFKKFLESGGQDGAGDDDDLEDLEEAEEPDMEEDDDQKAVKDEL

Take bepristat 2a: in experiment [1], the negative-log IC50 (pIC50) (commonly −log10 of the IC50, conventionally taken in molar units) is ~5.92.
`O=S(=O)(O)c1cccc2cccc(Nc3ccccc3)c12` [ANS, 1-anilinonaphthalene-8-sulfonic acid]: in experiment [2], the “ANS fluorescence binding (λex 370 nm), displaced by bepristats, absent with I272” value was “ANS fluorescence was prominent on incubation with the isolated b′x domain and weak on incubation with isolated a, a′”.
Regarding `C[C@@H]1O[C@@H](OC[C@H]2O[C@@H](Oc3c(-c4ccc(O)c(O)c4)oc4cc(O)cc(O)c4c3=O)[C@H](O)[C@@H](O)[C@@H]2O)[C@H](O)[C@H](O)[C@H]1O` [Q-3-R, quercetin-3-rutinoside], the “insulin turbidimetric and di-eosin-GSSG reductase assays” value in experiment [3] is given as “these other inhibitors all blocked PDI-mediated cleavage of di-eosin-GSSG when used at concentrations required to inhibit activity”.
In the case of `CCN(C)C(=O)C1(CCOc2ccccc2)CCN(Cc2ccc(O)c(Cl)c2)CC1` [bepristat 1a], in experiment [1], the negative-log IC50 (pIC50) is ~6.15.
